Data taken from paper PMC12199272, “Biochemical dissection of a fungal highly reducing polyketide synthase condensing region reveals basis for acyl group selection” (Chemical Science, 2025).

Key:
SimG AT domain (LD-AT) [1] = target: T1, SimG AT domain (LD-AT) (Tolypocladium inflatum, UniProt Z9QNP6F7M4); experiment: intact protein MS, acyl-enzyme formation; type: biochemical; conditions: covalent; active site Ser706; excess acyl-CoA; no ACP
T1 construct: excised AT domain with flanking linker domain (LD), active-site Ser706; recombinant; borders only in ESI
T1 sequence (Z9QNP6F7M4 1-440): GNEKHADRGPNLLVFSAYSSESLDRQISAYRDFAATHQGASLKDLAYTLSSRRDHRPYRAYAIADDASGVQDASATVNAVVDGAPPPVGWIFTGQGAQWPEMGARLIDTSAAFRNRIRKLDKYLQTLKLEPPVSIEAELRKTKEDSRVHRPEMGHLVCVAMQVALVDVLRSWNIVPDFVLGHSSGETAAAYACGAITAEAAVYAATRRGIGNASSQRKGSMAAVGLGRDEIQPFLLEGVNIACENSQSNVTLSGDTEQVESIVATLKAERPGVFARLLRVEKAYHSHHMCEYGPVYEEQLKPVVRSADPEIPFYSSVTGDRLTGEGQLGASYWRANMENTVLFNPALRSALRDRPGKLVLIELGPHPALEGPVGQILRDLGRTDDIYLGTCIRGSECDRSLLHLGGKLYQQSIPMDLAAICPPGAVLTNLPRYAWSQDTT

SimG AT domain (LD-AT) [2] = target: T1, SimG AT domain (LD-AT); experiment: intact protein MS, acyl-enzyme formation; type: biochemical; conditions: covalent; active site Ser706

| % loading of AT domain (SimG AT domain (LD-AT) [1]) [%] | SMILES | % acylation of AT domain (SimG AT domain (LD-AT) [2]) |
| --- | --- | --- |
| 35.3 ± 0.9 | CC(=O)SCCNC(=O)CCNC(=O)[C@H](O)C(C)(C)COP(=O)(O)OP(=O)(O)OC[C@H]1O[C@@H](n2cnc3c(N)ncnc32)[C@H](O)[C@@H]1OP(=O)(O)O [acetyl-CoA] |  |
|  | CCCC(=O)SCCNC(=O)CCNC(=O)[C@H](O)C(C)(C)COP(=O)(O)OP(=O)(O)OC[C@H]1O[C@@H](n2cnc3c(N)ncnc32)[C@H](O)[C@@H]1OP(=O)(O)O [butyryl-CoA] | good levels of AT transacylation were observed for C3–C10 substrates |
|  | CCCCCCCCCC(=O)SCCNC(=O)CCNC(=O)[C@H](O)C(C)(C)COP(=O)(O)OP(=O)(O)OC[C@H]1O[C@@H](n2cnc3c(N)ncnc32)[C@H](O)[C@@H]1OP(=O)(O)O [decanoyl-CoA] | good levels of AT transacylation were observed for C3–C10 substrates |
|  | CCCCCC(=O)SCCNC(=O)CCNC(=O)[C@H](O)C(C)(C)COP(=O)(O)OP(=O)(O)OC[C@H]1O[C@@H](n2cnc3c(N)ncnc32)[C@H](O)[C@@H]1OP(=O)(O)O [hexanoyl-CoA] | good levels of AT transacylation were observed for C3–C10 substrates |
| 64.5 ± 1.4 | CC(C)(COP(=O)(O)OP(=O)(O)OC[C@H]1O[C@@H](n2cnc3c(N)ncnc32)[C@H](O)[C@@H]1OP(=O)(O)O)[C@@H](O)C(=O)NCCC(=O)NCCSC(=O)CC(=O)O [malonyl-CoA] |  |
|  | CC(C(=O)O)C(=O)SCCNC(=O)CCNC(=O)[C@H](O)C(C)(C)COP(=O)(O)OP(=O)(O)OC[C@H]1O[C@@H](n2cnc3c(N)ncnc32)[C@H](O)[C@@H]1OP(=O)(O)O (some centres unmarked) [methylmalonyl-CoA] | methylmalonyl-CoA was able to acylate the AT domain |
|  | CCCCCCCC(=O)SCCNC(=O)CCNC(=O)[C@H](O)C(C)(C)COP(=O)(O)OP(=O)(O)OC[C@H]1O[C@@H](n2cnc3c(N)ncnc32)[C@H](O)[C@@H]1OP(=O)(O)O [octanoyl-CoA] | good levels of AT transacylation were observed for C3–C10 substrates |
|  | CCC(=O)SCCNC(=O)CCNC(=O)[C@H](O)C(C)(C)COP(=O)(O)OP(=O)(O)OC[C@H]1O[C@@H](n2cnc3c(N)ncnc32)[C@H](O)[C@@H]1OP(=O)(O)O [propionyl-CoA] | good levels of AT transacylation were observed for C3–C10 substrates |
